Assay results as given in US20040171795A1, “Novel peptides” (priority 2000, published 2004).
Where no end group is shown, it is not given here.

Experiment: Evaluation of toxicity of the peptide, tail vein administration
Type: in vivo
Settings: female BALB/c mouse, 5 mg/kg
Protocol: The peptide of the present invention was administered to a mouse from its tail vein to thereby evaluate its toxicity. The mouse used was a female BALB/c mouse of 5 week old, and the peptide was used at a dose of 5 mg/kg.

For LARLLARLLARLLRALLRALLRAL [SEQ ID NO:27], the “toxicity after tail vein administration” value was “died immediately after the administration”.
